Test results reported in patent US20060182683A1, “Methods for reduced renal uptake of protein conjugates” (Center for Molecular Medicine and Immunology, priority 1995, published 2006).

What was measured:
[1] = test system: mice; assay: Biodistribution of 99mTc-Fab′ NP-4 under poly-L-lysine of different molecular weight and lysine/poly-lysine mixtures; conditions: for Kidney uptake of 99mTc-Fab′ NP-4 / Kidney uptake, % control / Blood level of 99mTc-Fab′ NP-4 / Liver uptake of 99mTc-Fab′ NP-4 / Lungs uptake of 99mTc-Fab′ NP-4 / Spleen uptake of 99mTc-Fab′ NP-4: 4 h p.i.
Procedure: Female BALB/c mice, 19 to 22 g of weight, 4 to 5 weeks of age (Charles River Laboratories, Boston, Mass.) were used as non-tumor-bearing animals. For a human tumor xenograft model, the human colon carcinoma cell line GW39 (Primus et al supra) was grown subcutaneously in 5- to 6-week-old female athymic mice (Harlan, Madison, Wis.). Animals were injected intravenously into the tail vein with approximately 5-10 μg of antibody fragment protein (i.e., 25-40 μCi of ^99mTc, ^188Re, and ^111In, resp.; 4 μCi of ^88Y, and 10 μCi of ^125I, respectively).
The mice were sacrificed after 4 h and 24 h for ^99mTc-labeled antibodies, and after 4, 24, 72, 96 and 168 h for ^125I, ^111In, ^88Y and ^188Re-labeled antibodies. Mice were sacrificed by anesthesia with sodium pentobarbital and bled by cardiac puncture. After cervical dislocation, the animals were dissected. Radioactivity in the tumors and tissues (liver, spleen, kidney, lung, intestine, blood and bone) was determined by gamma scintillation counting using an injection standard to correct for physical decay.
L-lysine, D-lysine and L-arginine monohydrochloride salts (Sigma, St. Louis, Mo.) were dissolved in phosphate-buffered saline (PBS) at a concentration of 160 mg/ml. L-lysine ethyl ester dihydrochloride was dissolved in PBS to yield a concentration of 80 mg/ml. Poly-L-lysine (1-4 kDa and 15-30 kDa) were used as hydrochloride salts at concentration of 25 mg/ml and 10 mg/ml, respectively.
Animals were injected with the lysine and/or poly-lysine solutions intraperitoneally in amounts and at frequencies as shown below. Human patients were infused intravenously over a three-hour period with 1.5 liters of a commercially available amino acid solution starting 15 min before the antibody injection. The data of a total of 77 patients examined with ^99mTc-labeled anti-CEA Fab′ (NP-4: n=19; F023C5: n=58) were taken as controls (infused with the same volume of 0.9% saline instead of the amino acid solution).
To attempt to reduce the necessity of frequent injections of the kidney uptake reducing agent, polymeric substances of higher molecular weight were investigated.
To reach maximal effectiveness with as few injections as possible, combinations of lysine and poly-lysine were tested.

[2] = test system: GW39 colonic cancer xenograft bearing nude mice; assay: Biodistribution of anti-CEA 99mTc-Fab′ NP-4 under L-lysine / poly-L-lysine treatment; format: in vivo
Description: (§1) After cervical dislocation, the animals were dissected.

[3] = test system: BALB/c mice; assay: Kidney uptake and biodistribution of 99mTc-Fab′ NP-4 under lysine treatment; format: in vivo; conditions: for Kidney uptake, % of contr.: L-lysine 2000 μg/g
Procedure: as §1
(§2) L-lysine was injected i.p. in hourly intervals from 30 min before until 3 h after intravenous antibody injections (−30′, 1 h, 2 h, 3 h p.i.). […] At doses above this threshold, a strong dose-effect relationship was found. At 4×2000 μg/g, kidney uptake was reduced to 19±1% of the untreated control group at 4 h p.i.

[4] = test system: nude mice bearing GW39 colonic cancer xenografts; assay: Kidney uptake and dosimetry of 188Re-Fab′ Mu-9 under L-lysine treatment; format: in vivo
Description: as §1
No effect on the uptake in the tunor or other organs was observed.

[5] = test system: GW39 colonic cancer xenograft bearing nude mice; assay: Dosimetry of 111In/88Y-Bz-DTPA-Fab′ MN-14 under L-lysine treatment; format: in vivo; conditions: L-lysine four times 2000 μg/g i.p.
Procedure: as §1
To test the effectiveness of L-lysine in reduction of kidney uptake of indium and yttrium-labeled Fab′ fragments, a mixture of ^111In and ^88Y-labeled Fab′ fragments of the anti-CEA antibody MN-14 were injected into GW39 colon carcinoma bearing nude mice (injected with four times 2000 μg/g L-lysine; the control group were untreated). FIG. 4 and Table 4 suns the results.

[6] = test system: mice; assay: Kidney uptake of 125I-labeled Fab′ NP-4 and dosimetry for 131I-labeled Fab′ under L-lysine; format: in vivo
Description: as §1

[7] = test system: mice; assay: Kidney uptake and dosimetry of yttrium-labeled F(ab′)2 of anti-CD22 LL2 under L-lysine; format: in vivo; conditions: Lys treated
[8] = test system: mice; assay: Maximum tolerated dose and toxicity of lysine and poly-lysine; format: in vivo
Description: Comparison of the results in the control mice with those in the mice that receive the lysine and/or poly-lysine allows determination of the optimal dosage required to achieve the desired effect on kidney uptake of radioactivity. Determination of the dosage of lysine and/or poly-lysine that can be tolerated before toxic effects are observed can be achieved by physiological examination and histological observation of organs by methods. The optimal dosages of lysine and/or poly-lysine that are determined using the mouse model are used to guide the determination of appropriate dosage levels in human subjects using a standard dosage escalation regimen. Methods for determining effective dosages of lysine and/or poly-lysine for reducing kidney uptake are further illustrated in the Examples, below.
as §2

[9] = test system: mice; assay: Kidney uptake of 111In- and 88Y-labeled F(ab)2 fragments of MN-14; format: in vivo
Description: as §1

[10] = poly-L-lysine administered twice (30′ before and 1 h after antibody), first treated column, dose and size not given
[11] = poly-L-lysine administered twice (30′ before and 1 h after antibody), second treated column, dose and size not given
[12] = 15-30 kD, 10 μg/g once 30′ before antibody
[13] = 15-30 kD, 20 μg/g once 30′ before antibody
[14] = 131I-Fab′ NP-4, L-lysine 4 × 2 mg/g
[15] = poly-L-lys 0.15 mg/g i.v. at −30′, 4 h p.i.
[16] = poly-L-lys 0.15 mg/g i.v. at −30′, 24 h p.i.
[17] = 1-4 kD, 100 μg/g once 30′ before antibody
[18] = 1-4 kD, 200 μg/g once 30′ before antibody
[19] = 1-4 kD, 300 μg/g once 30′ before antibody

poly-L-lysine
Kidney uptake of 99mTc-Fab′ NP-4 [1, 10]: 43.7 ± 10.0
Kidney uptake, % control [1, 10]: 59.9 % control
Kidney uptake of 99mTc-Fab′ NP-4 [1, 11]: 41.6 ± 8.8
Kidney uptake, % control [1, 11]: 56.9 % control

Poly-L-lysine [poly-L-lysine (15-30 kD)]
kidney uptake reduction ([1]; 1×20 μg/g): 50%
Blood level of 99mTc-Fab′ NP-4 [1, 12]: 4.7 ± 0.3
Kidney uptake of 99mTc-Fab′ NP-4 [1, 12]: 73.9 ± 7.2
Kidney uptake, % control [1, 12]: 57.8 % control
Liver uptake of 99mTc-Fab′ NP-4 [1, 12]: 7.3 ± 3.7
Lungs uptake of 99mTc-Fab′ NP-4 [1, 12]: 6.8 ± 4.3
Spleen uptake of 99mTc-Fab′ NP-4 [1, 12]: 3.7 ± 0.4
Blood level of 99mTc-Fab′ NP-4 [1, 13]: 4.7 ± 0.2
Kidney uptake of 99mTc-Fab′ NP-4 [1, 13]: 55.7 ± 6.5
Kidney uptake, % control [1, 13]: 43.6 % control
Liver uptake of 99mTc-Fab′ NP-4 [1, 13]: 4.6 ± 0.7
Lungs uptake of 99mTc-Fab′ NP-4 [1, 13]: 7.9 ± 3.2
Spleen uptake of 99mTc-Fab′ NP-4 [1, 13]: 3.8 ± 0.3

NCCCC[C@H](N)C(=O)O [L-lysine]
Kidney uptake, % of contr. ([2]; L-lysine 0.5 mg/g i.p. at −30′, 1, 2, 3 h, 4 h p.i.): 63.0 % of contr.
Kidney uptake, % of contr. ([2]; L-lysine 0.5 mg/g i.p. at −30′, 1, 2, 3 h, 24 h p.i.): 70.0 % of contr.
Kidney uptake, % of contr. ([2]; L-lysine 2 mg/g i.p. at −30′, 1, 2, 3 h, 4 h p.i.): 29.7 % of contr.
Kidney uptake, % of contr. ([2]; L-lysine 2 mg/g i.p. at −30′, 1, 2, 3 h, 24 h p.i.): 30.0 % of contr.
influence on the tumor uptake or uptake in any other organ than the kidneys ([2]; nude mice bearing human colonic xenografts): no significant influence
kidney uptake of 99mTc-Fab′ NP-4, % of the untreated control group ([3]; 4×2000 μg/g i.p. in hourly intervals, 4 h p.i.): 19±1%
Kidney uptake, % of contr. ([3]; injection 4x at −30′, 1, 2, 3 h, 4 h p.i.): 15.5 % of contr.
Kidney uptake, % of contr. ([3]; injection once at −30′, 4 h p.i.): 56.4 % of contr.
Kidney uptake, % of contr. ([3]; injection twice at −30′ and 1 h, 4 h p.i.): 44.1 % of contr.
effect on kidney uptake of 99mTc-Fab′ NP-4 ([3]; doses below four times 100 μg/g body weight, hourly intervals): no significant effect
persistence of uptake reduction of 99mTc-Fab′ ([3]; mouse, in vivo): 24 h
effect on the uptake in the tumor or other organs ([4]; 188Re-Fab′ Mu-9): No effect
lys/contr. dose ratio, Blood ([4]; 188Re-Fab′ Mu-9): 0.79
lys/contr. dose ratio, Bone ([4]; 188Re-Fab′ Mu-9): 0.89
lys/contr. dose ratio, GW39 ([4]; 188Re-Fab′ Mu-9): 1.23
lys/contr. dose ratio, Kidney ([4]; 188Re-Fab′ Mu-9): 0.39
lys/contr. dose ratio, Liver ([4]; 188Re-Fab′ Mu-9): 0.96
lys/contr. dose ratio, Lung ([4]; 188Re-Fab′ Mu-9): 0.76
lys/contr. dose ratio, Spleen ([4]; 188Re-Fab′ Mu-9): 0.94
effect on the tumor dose ([4]; 188Re-Mu-9 Fab′ dosimetry): no effect on the tumor dose could be observed
kidney dose, % of the renal dose in the control group ([4]; 188Re-Mu-9 Fab′ dosimetry): approximately 30%
kidney uptake of 188Re-Fab′ Mu-9, % of the untreated control ([4]; 4 h p.i.): 29%
Kidney dose relative to control (100%), based on 88Y [5]: 18.8%
Kidney dose relative to control (100%), based on 111In [5]: 22.9%
kidney uptake of iodine-labeled Fab′, % of the nontreated control ([6]; 125I-Fab′ NP-4, 4 h p.i.): 38.7%
Lys/control dose ratio, Blood [6, 14]: 0.99
Lys/control dose ratio, Kidney [6, 14]: 0.51
Lys/control dose ratio, Liver [6, 14]: 0.94
Lys/control dose ratio, Lung [6, 14]: 0.95
Lys/control dose ratio, Spleen [6, 14]: 0.81
reduction of the absorbed dose to the kidney ([6]; calculated for a 131I-labeled Fab′ fragment): 50%
Kidney dose, % control [7]: 50.9 % control
Kidney uptake, % control ([7]; 4 h p.i.): 58.5 % control
Kidney uptake, % control ([7]; 48 h p.i.): 49.6 % control
tolerability at the MTD ([8]; 4×2500 μg/g, monitored for three months): tolerated without any obvious short or long term toxicity
maximum tolerated dose (MTD) ([8]; 4× injected i.p. in hourly intervals): 2500 µg/g
toxicity at doses higher than the MTD ([8]; above 4×2500 μg/g): began to develop fluid in the body cavities
persistence of reduction of uptake ([9]; F(ab′)2 fragments): persisted for several days
kidney uptake of 111In- and 88Y-F(ab′)2, % of control ([9]; lysine treatment): approximately 30%

NCCCC[C@@H](N)C(=O)O [D-lysine]
lowering of kidney uptake compared with L-lysine ([3]; four hourly injections i.p., same conditions as L-lysine): equally as effective as the L-isomer

Y labeled F(ab)2: 88Y-Bz-DTPA-labeled F(ab)2 fragment of the anti-CEA antibody MN-14
highest value of kidney uptake ([9]; up to 24 h p.i., no lysine): about 43 % of the injected dose/g

Poly-L-lysine [poly-L-lysine (1-4 kD)]
Blood level of 99mTc-Fab′ NP-4 [2, 15]: 1.7 ± 0.2
GW39 uptake of 99mTc-Fab′ NP-4 [2, 15]: 3.0 ± 1.0
Kidney uptake of 99mTc-Fab′ NP-4 [2, 15]: 30.8 ± 6.0
Kidney uptake, % of contr. [2, 15]: 52.2 % of contr.
Liver uptake of 99mTc-Fab′ NP-4 [2, 15]: 1.5 ± 0.2
Lung uptake of 99mTc-Fab′ NP-4 [2, 15]: 3.1 ± 1.2
Spleen uptake of 99mTc-Fab′ NP-4 [2, 15]: 1.0 ± 0.1
Blood level of 99mTc-Fab′ NP-4 [2, 16]: 0.3 ± 0.0
GW39 uptake of 99mTc-Fab′ NP-4 [2, 16]: 2.2 ± 0.3
Kidney uptake of 99mTc-Fab′ NP-4 [2, 16]: 25.3 ± 5.7
Kidney uptake, % of contr. [2, 16]: 94.7 % of contr.
Liver uptake of 99mTc-Fab′ NP-4 [2, 16]: 0.9 ± 0.1
Lung uptake of 99mTc-Fab′ NP-4 [2, 16]: 0.8 ± 0.6
Spleen uptake of 99mTc-Fab′ NP-4 [2, 16]: 0.7 ± 0.1
Blood level of 99mTc-Fab′ NP-4 [1, 17]: 3.8 ± 0.1
Kidney uptake of 99mTc-Fab′ NP-4 [1, 17]: 95.5 ± 4.3
Kidney uptake, % control [1, 17]: 74.8 % control
Liver uptake of 99mTc-Fab′ NP-4 [1, 17]: 3.0 ± 0.2
Lungs uptake of 99mTc-Fab′ NP-4 [1, 17]: 5.9 ± 3.1
Spleen uptake of 99mTc-Fab′ NP-4 [1, 17]: 3.0 ± 0.4
Blood level of 99mTc-Fab′ NP-4 [1, 18]: 4.4 ± 0.5
Kidney uptake of 99mTc-Fab′ NP-4 [1, 18]: 80.5 ± 6.9
Kidney uptake, % control [1, 18]: 63.0 % control
Liver uptake of 99mTc-Fab′ NP-4 [1, 18]: 3.0 ± 0.4
Lungs uptake of 99mTc-Fab′ NP-4 [1, 18]: 3.9 ± 2.6
Spleen uptake of 99mTc-Fab′ NP-4 [1, 18]: 2.7 ± 0.4
Blood level of 99mTc-Fab′ NP-4 [1, 19]: 5.3 ± 1.4
Kidney uptake of 99mTc-Fab′ NP-4 [1, 19]: 67.9 ± 7.5
Kidney uptake, % control [1, 19]: 53.2 % control
Liver uptake of 99mTc-Fab′ NP-4 [1, 19]: 3.5 ± 0.8
Lungs uptake of 99mTc-Fab′ NP-4 [1, 19]: 5.6 ± 1.0
Spleen uptake of 99mTc-Fab′ NP-4 [1, 19]: 3.5 ± 0.4
kidney uptake reduction compared with the monomer ([1]; single i.p. injection): significantly lower doses than the monomer
